Laboratory results taken from US20210238170A1, “5,5-Difluoro- and 5-Fluoro-5-Methyl-C-Glycoside Derivatives Useful As Dual SGLT1 / SGLT2 Modulators” (Janssen Pharmaceutica NV, priority 2018, published 2021).

Key:
human SGLT2 = target: T1, human SGLT2 (Homo sapiens, UniProt P31639); experiment: SGLT2 in vitro assay: Na-dependent 14C-AMG uptake in CHO-K1 cells stably expressing human SGLT2; format: cell-based; details: CHO-K1 cells stably expressing human SGLT2, 14C-AMG uptake; for inhibition at 0.3 µM: read-out: SGLT2 % Inh @ 0.3 μM; for IC50: compounds of formula (I) where R0 is fluoro
T1 construct: expressed in transfected cells
T1 sequence (P31639 1-672): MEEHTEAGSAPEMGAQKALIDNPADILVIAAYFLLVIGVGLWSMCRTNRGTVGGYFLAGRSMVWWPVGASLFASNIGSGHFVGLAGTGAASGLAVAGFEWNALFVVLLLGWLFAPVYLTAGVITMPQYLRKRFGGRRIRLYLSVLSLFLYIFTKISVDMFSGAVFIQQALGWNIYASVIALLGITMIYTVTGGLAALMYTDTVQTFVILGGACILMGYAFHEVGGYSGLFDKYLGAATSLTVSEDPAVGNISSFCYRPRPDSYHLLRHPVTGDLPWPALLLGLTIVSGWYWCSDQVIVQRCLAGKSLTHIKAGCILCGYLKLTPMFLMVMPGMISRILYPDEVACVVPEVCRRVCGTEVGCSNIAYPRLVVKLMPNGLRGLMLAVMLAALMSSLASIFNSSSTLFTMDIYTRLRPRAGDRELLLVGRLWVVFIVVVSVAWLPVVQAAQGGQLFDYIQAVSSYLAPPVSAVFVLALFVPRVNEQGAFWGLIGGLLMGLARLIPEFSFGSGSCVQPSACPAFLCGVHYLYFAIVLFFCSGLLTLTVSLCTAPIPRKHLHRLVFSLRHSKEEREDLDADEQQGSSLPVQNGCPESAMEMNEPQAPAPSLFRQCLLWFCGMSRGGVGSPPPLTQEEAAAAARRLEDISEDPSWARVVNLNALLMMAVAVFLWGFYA
Method: (§1) Biological Example 1: SGLT1 and SGLT2 In Vitro Assays
(§2) The ability of the compounds of formula (I) of the present invention to treat an SGLT-mediated condition was determined using the following procedures:
(§3) SGLT1 and SGLT2 were cloned in form of cDNA from human small intestine (Genbank M24847), and from human kidney (Genbank M95549), respectively. Subsequently, each full cDNA was subcloned into pcDNA with each construct's integrity verified through follow-on sequencing. To generate CHO-K1 cells that stably express human SGLT1 or human SGLT2, CHO-K1 cells were transfected using DMRIE-C reagent (Life Technologies, Gaithersburg, Md.). Transfected cells were then selected in the presence of 500 μg/ml of the Geneticin (G418 Cellgro Catalog No. 30234-CI)
(§4) Individual clones were then characterized using the following cell-based assay for sodium-dependent glucose transport:
(§5) Inhibition of SGLT1 and SGLT2 activity was assessed in CHO K1 cells stably expressing either human SGLT1 or SGLT2, using the SGLT specific glucose analog methyl-glucopyranoside (Sigma Catalog No. M-9376). Cells were plated (45,000 cells/well) in white wall 96-well plates (COSTAR, Cat #3903) for 24 hours in growth medium, then a final concentration of 10 mM Na-Butyrate (ALDRICH Cat #30341-0) was added. The cells were incubated for 24 hours. On the day of the assay, cells were rinsed and treated with test compounds (at concentrations of 0.001 μM to 10 μM) in assay buffer (50 mM HEPES, 20 mM Tris base, 5 mM KCl, 1 mM MgCl2, 1 mM CaCl2 and 137 mM NaCl, pH 7.4) for 10 minutes. Cells were then incubated with ^14C-a-methyl-d-glucopyranoside (AMG, Amersham Catalog No. CFB 76), using 0.07 μCi per well in 500 µM AMG final concentration. The cells were incubated for 2 hours at 37° C. with 5% CO2 and washed two times with ice-cold Phosphate Buffer Solution (CELLGRO Catalog No. 21030-CV). The cells were then solubilized by adding 60 μl of MICROSCINT™ 20 and the Na-dependent ^14C-AMG uptake was quantified by measuring radioactivity. Plates were counted in a TopCount (Packard, Meriden, Conn.)
(§6) Representative compounds of the present invention were tested according to the procedures as described in Biological Example 1 and 2 above, with results as listed in Table 5, below. Results are reported as the %-inhibition or IC50 value. Variability for the functional assay was typically within 20%.

human SGLT1 = target: T2, human SGLT1 (Homo sapiens, UniProt P13866); experiment: SGLT1 in vitro assay: Na-dependent 14C-AMG uptake in CHO-K1 cells stably expressing human SGLT1; format: cell-based; details: CHO-K1 cells stably expressing human SGLT1, 14C-AMG uptake; for inhibition at 0.3 µM: read-out: SGLT1 % Inh @ 0.3 μM; for IC50: compounds of formula (I) where R0 is fluoro
T2 construct: expressed in transfected cells
T2 sequence (P13866 1-664): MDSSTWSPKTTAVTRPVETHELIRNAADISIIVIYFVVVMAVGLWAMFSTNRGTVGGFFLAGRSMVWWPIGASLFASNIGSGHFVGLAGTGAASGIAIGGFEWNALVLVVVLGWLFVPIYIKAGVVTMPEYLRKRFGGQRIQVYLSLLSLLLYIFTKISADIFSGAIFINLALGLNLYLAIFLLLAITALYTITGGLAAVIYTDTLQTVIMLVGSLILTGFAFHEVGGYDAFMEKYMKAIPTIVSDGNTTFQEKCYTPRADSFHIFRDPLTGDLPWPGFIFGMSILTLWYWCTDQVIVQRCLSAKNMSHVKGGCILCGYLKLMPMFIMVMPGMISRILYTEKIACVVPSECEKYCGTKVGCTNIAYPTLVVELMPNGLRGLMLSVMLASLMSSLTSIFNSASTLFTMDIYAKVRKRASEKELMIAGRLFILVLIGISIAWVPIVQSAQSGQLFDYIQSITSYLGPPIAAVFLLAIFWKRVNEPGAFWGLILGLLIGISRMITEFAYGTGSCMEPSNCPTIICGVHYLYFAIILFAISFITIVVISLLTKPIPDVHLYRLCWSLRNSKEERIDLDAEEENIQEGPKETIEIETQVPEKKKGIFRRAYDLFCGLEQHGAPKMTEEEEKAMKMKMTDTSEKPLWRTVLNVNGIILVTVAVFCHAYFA
Method: as §1, §2, §3, §4, §5, §6

Cc1cc(O)c([C@@H]2O[C@H](CO)C(F)(F)[C@H](O)[C@H]2O)cc1Cc1ccc(-c2cccc(F)c2)s1 [Compound 71]
SGLT2 % Inh @ 0.3 μM (human SGLT2): 76.8% | SGLT1 % Inh @ 0.3 μM (human SGLT1): 21.6%

OC[C@H]1O[C@@H](c2cc(Cc3ccc4c(c3)OCCO4)c(Cl)c3c2CCO3)[C@H](O)[C@@H](O)C1(F)F [Compound 188]
SGLT2 % Inh @ 0.3 μM (human SGLT2): 60.1% | SGLT1 % Inh @ 0.3 μM (human SGLT1): 21.6%

COc1cc(C)c(Cc2cc3ccccc3s2)cc1[C@@H]1O[C@H](CO)C(F)(F)[C@H](O)[C@H]1O [Compound 35, (2S,3R,4R,6R)-2-[5-(benzothiophen-2-ylmethyl)-2-methoxy-4-methyl-phenyl]-5,5-difluoro-6-(hydroxymethyl)tetrahydropyran-3,4-diol]
inhibition at 0.3 µM (human SGLT2): 76.3% | inhibition at 0.3 µM (human SGLT1): 39.2%

CCc1cc(O)c([C@@H]2O[C@H](CO)C(F)(F)[C@H](O)[C@H]2O)cc1Cc1ccc(OC(F)(F)F)cc1 [Compound 104]
SGLT2 % Inh @ 0.3 μM (human SGLT2): 82.6% | SGLT1 % Inh @ 0.3 μM (human SGLT1): 39.2%

OC[C@H]1O[C@@H](c2cc(Cc3cc4ccccc4s3)c(Cl)cc2O)[C@H](O)[C@@H](O)C1(F)F [Compound 27, (2S,3R,4R,6R)-2-[5-(benzothiophen-2-ylmethyl)-4-chloro-2-hydroxy-phenyl]-5,5-difluoro-6-(hydroxymethyl)tetrahydropyran-3,4-diol]
IC50 (human SGLT2): 4.2 nM | inhibition at 0.3 µM (human SGLT1): 71.3% | IC50 (human SGLT1): 93 nM

COC(=O)N1CCc2sc(Cc3cc([C@@H]4O[C@H](CO)C(F)(F)[C@H](O)[C@H]4O)c(OC)cc3Cl)cc2C1 [Compound 65]
SGLT2 % Inh @ 0.3 μM (human SGLT2): 56.1% | SGLT1 % Inh @ 0.3 μM (human SGLT1): 16.9%

Cc1ccc(Cc2cc([C@@H]3O[C@H](CO)C(F)(F)[C@H](O)[C@H]3O)c(O)cc2Cl)s1 [Compound 161]
inhibition at 0.3 µM (human SGLT2): 87.6% | IC50 (human SGLT2): 2.5 nM | inhibition at 0.3 µM (human SGLT1): 87.8% | IC50 (human SGLT1): 35 nM

[2H]C([2H])(c1ccc2c(c1)OCCO2)c1cc([C@@H]2O[C@H](CO)C(F)(F)[C@H](O)[C@H]2O)ccc1CC [Compound 192]
inhibition at 0.3 µM (human SGLT2): 85.7% | IC50 (human SGLT2): 108 nM | inhibition at 0.3 µM (human SGLT1): 49.9% | IC50 (human SGLT1): 779 nM

Cc1cc(O)c([C@@H]2O[C@H](CO)C(F)(F)[C@H](O)[C@H]2O)cc1Cc1ccc(-c2cccc(F)n2)s1 [Compound 70]
inhibition at 0.3 µM (human SGLT2): 76.2% | IC50 (human SGLT2): 2.7 nM | inhibition at 0.3 µM (human SGLT1): 61.2% | IC50 (human SGLT1): 120 nM

OC[C@H]1O[C@@H](c2cc(Cc3ccc(Cl)s3)c(Cl)cc2O)[C@H](O)[C@@H](O)C1(F)F [Compound 167]
inhibition at 0.3 µM (human SGLT2): 83.4% | IC50 (human SGLT2): 0.8 nM | inhibition at 0.3 µM (human SGLT1): 75.7% | IC50 (human SGLT1): 20 nM

COc1c([C@@H]2O[C@H](CO)C(F)(F)[C@H](O)[C@H]2O)cc(Cc2ccc(OCF)cc2)c2c1CCO2 [Compound 184]
SGLT2 % Inh @ 0.3 μM (human SGLT2): 73.2% | SGLT1 % Inh @ 0.3 μM (human SGLT1): 24.7%

COc1c([C@@H]2O[C@H](CO)C(F)(F)[C@H](O)[C@H]2O)cc(Cc2ccc3c(c2)OCCO3)c2c1CCO2 [Compound 76]
inhibition at 0.3 µM (human SGLT2): 84.4% | IC50 (human SGLT2): 5 nM | inhibition at 0.3 µM (human SGLT1): 44.3% | IC50 (human SGLT1): 302 nM

COc1cc(O)c([C@@H]2O[C@H](CO)C(F)(F)[C@H](O)[C@H]2O)cc1Cc1cc2c(s1)CCN(C#N)C2 [Compound 134]
SGLT2 % Inh @ 0.3 μM (human SGLT2): 62.3% | SGLT1 % Inh @ 0.3 μM (human SGLT1): 31.6%

OC[C@H]1O[C@@H](c2cc(Cc3ccc(C4CC4)cc3)c(C3CC3)cc2O)[C@H](O)[C@@H](O)C1(F)F [Compound 141]
inhibition at 0.3 µM (human SGLT2): 82.8% | IC50 (human SGLT2): 44.9 nM | inhibition at 0.3 µM (human SGLT1): 78.8% | IC50 (human SGLT1): 95 nM

COc1cc(Cl)c(Cc2ccc3c(c2)OCCO3)cc1[C@@H]1O[C@H](CO)C(F)(F)[C@H](O)[C@H]1O [Compound 48, (2S,3R,4R,6R)-2-[4-chloro-5-(2,3-dihydro-1,4-benzodioxin-6-ylmethyl)-2-methoxy-phenyl]-5,5-difluoro-6-(hydroxymethyl)tetrahydropyran-3,4-diol]
inhibition at 0.3 µM (human SGLT2): 78.1% | inhibition at 0.3 µM (human SGLT1): 36.5%

COc1cc(C)c(Cc2ccc(Cl)s2)cc1[C@@H]1O[C@H](CO)C(F)(F)[C@H](O)[C@H]1O [Compound 112]
inhibition at 0.3 µM (human SGLT2): 81.1% | IC50 (human SGLT2): 4.5 nM | inhibition at 0.3 µM (human SGLT1): 43.5% | IC50 (human SGLT1): 1030 nM

Cc1cc(O)c([C@@H]2O[C@H](CO)C(F)(F)[C@H](O)[C@H]2O)cc1Cc1ccc(OC(F)F)cc1 [Compound 96, (2S,3R,4R,6R)-2-[5-[[4-(difluoromethoxy)phenyl]methyl]-2-hydroxy-4-methyl-phenyl]-5,5-difluoro-6-(hydroxymethyl)tetrahydropyran-3,4-diol]
inhibition at 0.3 µM (human SGLT2): 81.4% | IC50 (human SGLT2): 4.8 nM | inhibition at 0.3 µM (human SGLT1): 49.1% | IC50 (human SGLT1): 318 nM

COC(=O)N1CCc2sc(Cc3cc([C@@H]4O[C@H](CO)C(F)(F)[C@H](O)[C@H]4O)c(O)cc3Cl)cc2C1 [Compound 64]
SGLT2 % Inh @ 0.3 μM (human SGLT2): 67.1% | SGLT1 % Inh @ 0.3 μM (human SGLT1): 6.2%

CCc1ccc(Cc2cc(C3OC(CO)C(F)(F)C(O)C3O)cc3c2OCC3CO)cc1 (mixture of isomers) [Compound 61]
SGLT2 % Inh @ 0.3 μM (human SGLT2): 58.0% | SGLT1 % Inh @ 0.3 μM (human SGLT1): 32.2%

OC[C@H]1O[C@@H](c2cc(Cc3ccc(OCF)cc3)c(Cl)cc2O)[C@H](O)[C@@H](O)C1(F)F [Compound 116, (2S,3R,4R,6R)-2-(4-chloro-5-{[4-(fluoromethoxy)phenyl]methyl}-2-hydroxyphenyl)-5,5-difluoro-6-(hydroxymethyl)oxane-3,4-diol]
inhibition at 0.3 µM (human SGLT2): 85.5% | IC50 (human SGLT2): 4.5 nM | inhibition at 0.3 µM (human SGLT1): 65.2% | IC50 (human SGLT1): 122 nM

COc1c([C@@H]2O[C@H](CO)C(F)(F)[C@H](O)[C@H]2O)cc(Cc2ccc(N(C)C)cc2)c2c1CCO2 [Compound 185]
SGLT2 % Inh @ 0.3 μM (human SGLT2): 65.3% | SGLT1 % Inh @ 0.3 μM (human SGLT1): 25.4%

COC(=O)N1CCc2sc(Cc3cc([C@@H]4O[C@H](CO)C(F)(F)[C@H](O)[C@H]4O)c(OC)cc3OC)cc2C1 [Compound 75]
SGLT2 % Inh @ 0.3 μM (human SGLT2): 52.3% | SGLT1 % Inh @ 0.3 μM (human SGLT1): 15.5%
